Tests used:
ovariectomized rats [1] = assay: serum test (calcium, magnesium, potassium, sodium, phosphor) of ovariectomized rats fed with the test agents; conditions: Comparison 2 (OVXC): ovariectomized rats, calcium citrate 0.5 g/kg, no liquid
Description: (§1) Owing to hormone variation, menopausal females lose their bones fast and suffer from osteoporosis easily. The rats used in the experiment groups, control group, and comparison groups are female Sprague-Dawley rats. The rats are fed with different proportions of the high-magnesium potable water beforehand. Then, the serum and tissue slices of the rats are analyzed.
(§2) The dosages of the high-magnesium concentrated liquid fed to the rats in experiment groups, control group and comparison groups are shown in Table.1. The unit of the dosage is milliliter or gram per kilogram of body weight. The control group is the group of unovariectomized rats. The supply of calcium citrate is to learn the influence of calcium on osteoporosis.

ovariectomized rats [2] = assay: serum test (ALP, BUN, CRE, GOT, GPT) of ovariectomized rats fed with the test agents; conditions: Comparison 2 (OVXC): ovariectomized rats, calcium citrate 0.5 g/kg, no liquid
Description: as §1, §2

ovariectomized rats [3] = assay: Micro-CT bone density and trabecula images of ovariectomized rats; type: in vivo, female Sprague-Dawley rats; conditions: Comparison Group II, calcium citrate 0.5 g/kg, no liquid
Description: as §1, §2
FIGS. 2A-2F are respectively the images of the bone densities of the rats of Experiment Group I, Experiment Group II, Experiment Group III, Control Group, Comparison Group I, and Comparison Group II. FIGS. 3A-3F are respectively the trabecula images of the rats of Experiment Group I, Experiment Group II, Experiment Group III, Control Group, Comparison Group I, and Comparison Group II.

O=C([O-])CC(O)(CC(=O)[O-])C(=O)[O-].O=C([O-])CC(O)(CC(=O)[O-])C(=O)[O-].[Ca+2].[Ca+2].[Ca+2] [Calcium Citrate, calcium citrate]
Calcium in serum (ovariectomized rats [1]): 12.4 mg/dL
Phosphor in serum (ovariectomized rats [1]): 8 mg/dL
Potassium in serum (ovariectomized rats [1]): 5.8 mmol/L
Sodium in serum (ovariectomized rats [1]): 143 mmol/L
ALP in serum (ovariectomized rats [2]): 130 U/L
BUN in serum (ovariectomized rats [2]): 17 mg/dL
CRE in serum (ovariectomized rats [2]): 0.85 mg/dL
GOT in serum (ovariectomized rats [2]): 75 U/L
GPT in serum (ovariectomized rats [2]): 75 U/L
bone density (Micro-CT images) (ovariectomized rats [3]; FIG. 2F): lower bone density
trabecula distribution (Micro-CT images) (ovariectomized rats [3]; FIG. 3F): less compact trabecula distribution

Reference: US10647591B2, “High-magnesium concentrated liquid” (QUALITY PURE CO., LTD., priority 2016, dated 2020)
